The subject of experiment [1] is HIV-1 CRF01_AE pseudoviruses. The format is cell-based. Particulars: mean over CRF01_AE pseudoviruses of Table 2; TZM-bl. The text has this:
(§1) A panel of plasmids encoding HIV-1 Envs were obtained through the AIDS Research and Reference Reagent Program (ARRRP), Division of AIDS, NIAID, NIH, including subtype A Env clones pSVIII-92RW020.5 and 92UG037.8 from Dr. B.H. Hahn; subtype B Env clones SC422661.8, TRO.11 and AC10.0.29 from Drs. D. Montefiori, F. Gao and M. Li, pRHPA4259.7 and pREJO4541.67 from Drs. B.H. Hahn and J.F. Salazar-Gonzalez, and pCAAN5342.A2 from Drs. B.H. Hahn and D.L. Kothe; subtype C Env clones Du172.17 and Du422.1 from Drs. D. Montefiori, F. Gao, S. Abdool Karim and G. Ramjee, CAP45.2.00.G3 from Drs. L. Morris, K. Mlisana and D. Montefiori, ZM197M.PB7 from Drs. B.H. Hahn, Y. Li and J.F. Salazar-Gonzalez, ZM109F.PB4 from Drs. E. Hunter and C. Derdeyn. Six CRF07_BC Env clones (CH064.20, CH070.1, CH091.9, CH110.2, CH119.10 and CH120.6) were generous gifts by Dr. Y. Shao in the Chinese Center for Disease Control and Prevention, Beijing, China. A panel of Env clones derived from subtype B′ (B01, B02, B04, and 43-22), CRF01_AE (SHX335.24, YN192.31, AE01, AE03, GX2010.36, GX11.13, GX2010.36H, BJ5.11), and CRF07_BC (BC02, BC03, BC05, BC07, BC14, SC19-15, BJ22-5, YN148R-9, XJ50-6, HB5-3) were kindly provided by Dr. Y. Wang from the National Institute for the Control of Pharmaceutical and Biological Products, Beijing, China.

In experiment [2] the test system is HIV-1 CRF07_BC pseudoviruses. The format is cell-based. The note with it: mean over CRF07_BC pseudoviruses of Table 2; TZM-bl.
Text: as §1

The subject of experiment [3] is HIV-1 subtype A pseudoviruses. The format is cell-based. Particulars: mean over subtype A pseudoviruses of Table 1; TZM-bl.
Text: as §1

Experiment [4] deals with HIV-1 subtype B pseudoviruses. Format: cell-based.
Text: as §1

The test system of experiment [5] is HIV-1 subtype B′ pseudoviruses. Format: cell-based. Particulars: mean over subtype B′ pseudoviruses of Table 2; TZM-bl.
Text: as §1

The test system of experiment [6] is HIV-1 subtype C pseudoviruses. The format is cell-based. The note with it: mean over subtype C pseudoviruses of Table 1; TZM-bl.
Text: as §1

Another experiment deals with HIV-1. The note with it: cited from earlier work.

enfuvirtide: the IC50 in experiment [1] was 68.1 nM; in experiment [2], 47.2 nM; in experiment [3] it was 14.5 nM; in experiment [4] (mean over subtype B pseudoviruses of Table 1, TZM-bl) it was 214 nM; in experiment [5], 19.5 nM; in experiment [6], 55.2 nM. For the same substance, in experiment [4] (some Envs derived from subtype B, compared to other HIV-1 isolates), the “sensitivity of some subtype B Envs (in words)” value is “much less sensitive”. Moreover, the “inhibition of viral entry (in words)” value with HIV-1 is given as “low nanomolar concentration”.

As usually defined, the IC50 is the midpoint of a concentration-inhibition curve.

Values taken from PMC3293837, “Biophysical Property and Broad Anti-HIV Activity of Albuvirtide, a 3-Maleimimidopropionic Acid-Modified Peptide Fusion Inhibitor” (PLoS ONE, 2012).
